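A five-concentration, 48-hour dose response in 96-well plates underlies each endpoint, interpolated linearly between surrounding concentrations. TGI marks complete inhibition of growth.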
Legend:
Assay in all cases: inhibition of tumour cell growth, NCI panel, 48 h
786-0 renal = system: 786-0 renal
A498 renal = system: A498 renal
A549 NSCLC = system: A549 NSCLC
ACHN renal = system: ACHN renal
BT-549 breast = system: BT-549 breast
CAKI-1 renal = system: CAKI-1 renal
CCRF-CEM leukemia = system: CCRF-CEM leukemia
COLO 205 colon = system: COLO 205 colon
DU-145 prostate = system: DU-145 prostate
EKVX NSCLC = system: EKVX NSCLC
HCC-2998 colon = system: HCC-2998 colon
HCT-116 colon = system: HCT-116 colon
HCT-15 colon = system: HCT-15 colon
HL-60(TB) leukemia = system: HL-60(TB) leukemia
HOP-62 NSCLC = system: HOP-62 NSCLC
HOP-92 NSCLC = system: HOP-92 NSCLC
HS 578T breast = system: HS 578T breast
HT29 colon = system: HT29 colon
IGROV1 ovarian = system: IGROV1 ovarian
K-562 leukemia = system: K-562 leukemia
KM12 colon = system: KM12 colon
LOX IMVI melanoma = system: LOX IMVI melanoma
M14 melanoma = system: M14 melanoma
MALME-3M melanoma = system: MALME-3M melanoma
MCF7 breast = system: MCF7 breast
MDA-MB-231 breast = system: MDA-MB-231 breast
MDA-MB-435 = system: MDA-MB-435
MDA-N = system: MDA-N
MOLT-4 leukemia = system: MOLT-4 leukemia
NCI-H226 lung = system: NCI-H226 lung
NCI-H23 lung = system: NCI-H23 lung
NCI-H460 lung = system: NCI-H460 lung
NCI-H522 lung = system: NCI-H522 lung
NCI/ADR-RES ovarian = system: NCI/ADR-RES ovarian
OVCAR-3 ovarian = system: OVCAR-3 ovarian
OVCAR-4 ovarian = system: OVCAR-4 ovarian
OVCAR-5 ovarian = system: OVCAR-5 ovarian
OVCAR-8 ovarian = system: OVCAR-8 ovarian
PC-3 prostate = system: PC-3 prostate
RPMI-8226 leukemia = system: RPMI-8226 leukemia
RXF 393 renal = system: RXF 393 renal
SF-268 CNS = system: SF-268 CNS
SF-295 CNS = system: SF-295 CNS
SF-539 CNS = system: SF-539 CNS
SK-MEL-2 melanoma = system: SK-MEL-2 melanoma
SK-MEL-28 melanoma = system: SK-MEL-28 melanoma
SK-MEL-5 melanoma = system: SK-MEL-5 melanoma
SK-OV-3 ovarian = system: SK-OV-3 ovarian
SN12C renal = system: SN12C renal
SNB-19 CNS = system: SNB-19 CNS
SNB-75 CNS = system: SNB-75 CNS
SW-620 colon = system: SW-620 colon
T-47D breast = system: T-47D breast
TK-10 renal = system: TK-10 renal
U251 CNS = system: U251 CNS
UACC-257 melanoma = system: UACC-257 melanoma
UACC-62 melanoma = system: UACC-62 melanoma

Measured: TGI

OC(C1CCCC1=N/N=C1/CCCC1C(O)(C(F)(F)Cl)C(F)(F)Cl)(C(F)(F)Cl)C(F)(F)Cl (configuration not stated)
> 10 µM: all assays above

Source: PubChem BioAssay (NCI)
